“And” between values parts separate entries of the source, which are not always exact repeats. Equal entries are not always repeated. Square brackets hold non-standard residues; d marks the D form. Peptide text beside a SMILES is read from it. Nle = CCCC[C@H](N)C(=O)O
What was measured:
[1] = target: T1, endothelin receptor (membrane of smooth muscle tissue of porcine aorta) (Sus scrofa, UniProt Q29010); assay: Endothelin binding inhibition test (125I-endothelin-1, porcine aorta smooth muscle membrane); settings: 1.1 μM of the test compound, porcine aorta smooth muscle membrane, 25° C, 4 hours; for inhibition at 1.1 µM: read-out: 125I-endothelin-1 binding inhibition, Inhibition (%)
T1 construct: from tissue; host or cells: smooth muscle tissue of porcine aorta (membrane fraction)
T1 sequence (Q29010 21-427): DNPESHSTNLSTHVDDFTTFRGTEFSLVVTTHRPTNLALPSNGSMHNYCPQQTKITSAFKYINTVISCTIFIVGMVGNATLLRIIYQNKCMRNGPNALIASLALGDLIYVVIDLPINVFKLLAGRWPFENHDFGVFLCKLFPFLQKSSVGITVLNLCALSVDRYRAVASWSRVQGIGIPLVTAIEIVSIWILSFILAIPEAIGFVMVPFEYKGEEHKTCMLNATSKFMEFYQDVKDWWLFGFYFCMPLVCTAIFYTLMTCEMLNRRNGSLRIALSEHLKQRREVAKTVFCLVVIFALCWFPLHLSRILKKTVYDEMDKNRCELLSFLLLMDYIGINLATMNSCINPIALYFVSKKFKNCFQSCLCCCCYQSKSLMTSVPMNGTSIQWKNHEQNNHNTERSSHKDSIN
How it was run: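 Porcine aortic smooth muscle membranes incubated with ^125I-endothelin-1 (12000-18000 cpm) and test compound at 1.1 μM final in Tris/HCl pH 7.4 with protease inhibitors and 0.1% BSA, 4 h at 25 °C. Filter-bound radioactivity counted, nonspecific binding defined with 0.2 μM endothelin-1; % binding inhibition in triplicate.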

[2] = system: isolated porcine coronary artery (endothelin-1-induced contraction); assay: Activities against endothelin-induced contraction of isolated porcine coronary arteries; design: species or system pig; settings: for shift of the concentration-response curve of endothelin-1: added 20 minutes prior to endothelin-1
Protocol: Activities against endothelin-induced contraction of isolated procine coronary arteries
The coronary artery of pig was extracted, and a spiral preparation having a width of 1 mm and a length of 10 mm was prepared therefrom. The preparation having the endothelial cells denuded, was hanged in a 5 ml organ bath filled wit a Krebs.Henseleit solution saturated with a gas mixture of 95% O2 and 5% CO2, and the change in the tension was isometrically measured and recorded.
(§1) Endothelin-1 was added into the organ bath in a cumulatively increasing manner, whereby the influence of the compound of the present invention to the concentration-response curve for endothelin-1 was examined. The compound of the present invention was added into the organ bath 20 minutes prior to the addition of endothelin-1.

[3] = system: isolated guinea pig trachea (endothelin-1-induced contraction); assay: Activities against endothelin-induced contraction of isolated guinea pig trachea; settings: for shift of the concentration-response curve for endothelin-1: added 20 minutes prior to endothelin-1
Protocol: Activities aqainst endothelin-induced contraction of isolated guinea pig trachea
The trachea of a guinea pig was extracted, and the trachea was cut into rings to afford the preparation. A preparation having the endothelial cells denuded, was hanged in a 5 ml organ bath filled with a Krebs.Henseleit solution saturated with a gas mixture of 95% O2 and 5% CO2, and the change in the tension was isometrically measured and recorded.
Endothelin-1 was added into the organ bath in a cumulatively increasing manner, and the influence of the compound of the present invention to the concentration-response curve for endothelin was examined. The compound of the present invention was added into the organ bath 20 minutes prior to the addition of endothelin-1.

[4] = system: male ddy mouse (endotoxin-induced body temperature lowering); assay: Endotoxin shock: endotoxin-induced body temperature lowering in mice; assay type: in vivo; settings: endotoxin 30 mg/kg i.v., compound 100 mg/kg i.p. 30 minutes prior to and 30 minutes subsequent to endotoxin
Protocol: (§2) Activities against an endotoxin shock
(§3) To a male ddy mouse, endotoxin (Lipopolysaccharide derived from E. coli 055:B5) dissolved in a 0.15% sodium hydrogencarbonate aqueous solution, was intravenously administered via the tail vein at a dose of 30 mg/kg, whereupon a distinct body temperature lowering effect was observed.

[5] = system: mice (endotoxin-induced mortality); assay: Endotoxin shock: endotoxin-induced mortality in mice; assay type: in vivo, mouse; settings: for Survived number/number of the tested animals / survival rate (%): compound 100 × 2 mg/kg i.p.
Protocol: as §2, §3
The intravenous administration of endotoxin via the tail vein at a high dose (100 mg/kg) killed mice in all cases (10/10) within 48 hours.

[6] = system: isolated rat heart (endothelin-1-induced increase of perfusion pressure); assay: Effects on the increased perfusion pressure induced by endothelin in isolated rat heart
Protocol: Effects on the increased perfusion pressure induced by endothelin in isolated rat heart
The heart of a male Sprague Dohrie (SD) rat was extracted, and the perfusion pressure was measured and recorded by a Langendorff's method. The perfusion pressure was evaluated on the basis that the state where a Krebs.Henseleit solution saturated with a gas mixture of 95% O2 and 5% CO2 was infused at a rate of 10 ml/min, was taken as a standard.
Endothelin-1 was cumulatively added to the perfusate, whereby the influence of the compound to the concentration-response curve for endothelin-1 was examined. The compound of the present invention which was dissolved in the perfusate had been infused from 20 minutes prior to the addition of endothelin-1 till just after finishing measurement of the concentration-response curve for endothelin-1.

[7] = system: isolated porcine basilar artery (endothelin-1-induced contraction); assay: Activities against endothelin-induced contraction of isolated porcine basilar artery; design: species or system pig; settings: compound 2 μM
Protocol: Activities aqainst endothelin-induced contraction of isolated porcine basilar artery
The arteria basilaris of pig was extracted, and then a ring preparation with a width of 4 mm was prepared. After denuded the endothelial cells, the preparation was hanged in a 5 ml organ bath filled with a Krebs.Henseleit solution saturated with a gas mixture of 95% O2 and 5% CO2, and the change in the tension was isometrically measured and recorded.
as §1

[8] = 24 hr after endotoxin (100 mg/kg i.v.)
[9] = 48 hr after endotoxin (100 mg/kg i.v.)
[10] = 96 hr after endotoxin (100 mg/kg i.v.)

## CC(C)C[C@@H]1NC(=O)[C@@H](C(C)C)NC(=O)[C@@H]2CCCN2C(=O)[C@@H](CC(=O)O)NC(=O)[C@@H](Cc2c[nH]c3ccccc23)NC1=O [Example 15, cyclo(-DTrp-DAsp-Pro-DVal-Leu-)] (cyclo(L[dW][dD]P[dV]))
[1]
  inhibition at 1.1 µM: 85%
[2]; compound 2 μM
  effect on the maximum response to endothelin-1: did not affect the maximum response
  shift of the concentration-response curve of endothelin-1: remarkably shifted the concentration-response curves of endothelin-1 to the right
[3]; compound 2 μM
  effect on the maximum response to endothelin-1: did not affect the maximum response
  shift of the concentration-response curve for endothelin-1: remarkably shifted the concentration-response curves for endothelin-1 to the right
[4]
  effect on the endotoxin-induced body temperature lowering: showed remarkable antagonistic activities against the endotoxin-induced body temperature lowering effect
[5]; [8]
  Survived number/number of the tested animals: 10/10
  survival rate (%): 100%
[5]; [9]
  Survived number/number of the tested animals: 6/10
  survival rate (%): 60%
[5]; [10]
  Survived number/number of the tested animals: five cases out of ten cases survived and 5/10
  survival rate (%): 50%
[5]; endotoxin 100 mg/kg i.v., compound 100 mg/kg i.p. 30 minutes before and after endotoxin
  effect on endotoxin-induced mortality: a distinct reduction in the mortality was observed

## CC(C)C[C@@H]1NC(=O)[C@@H](C(C)C)NC(=O)[C@H](C)NC(=O)[C@@H](CC(=O)O)NC(=O)[C@@H](Cc2c[nH]c3ccccc23)NC1=O [Example 12, cyclo(-DTrp-DAsp-Ala-DVal-Leu-)] (cyclo(A[dV]L[dW][dD]))
[1]
  inhibition at 1.1 µM: 75%
[2]; compound 3 μM
  effect on the maximum response to endothelin-1: did not affect the maximum response
  shift of the concentration-response curve of endothelin-1: remarkably shifted the concentration-response curves of endothelin-1 to the right

## cyclo(-DTro-DCys(O3 Na)-Pro-DVal-Leu-) [Example 3]
[1]
  125I-endothelin-1 binding inhibition, Inhibition (%): 85%
[2]; compound 2 μM
  effect on the maximum response to endothelin-1: did not affect the maximum response
  shift of the concentration-response curve of endothelin-1: remarkably shifted the concentration-response curves of endothelin-1 to the right
[3]; compound 6 μM
  effect on the maximum response to endothelin-1: did not affect the maximum response
  shift of the concentration-response curve for endothelin-1: remarkably shifted the concentration-response curves for endothelin-1 to the right
[6]; compound 1 μM
  effect on the maximum response to endothelin-1 (perfusion pressure): did not affect the maximum response
[6]; compound 1 μM in the perfusate from 20 minutes prior to endothelin-1, Langendorff
  shift of the concentration-response curve for endothelin-1 (perfusion pressure): moved the concentration-response curve for endothelin-1 to the right
[7]
  effect on the maximum response to endothelin-1: did not affect the maximum response
[7]; added 20 minutes prior to endothelin-1
  shift of the concentration-response curve for endothelin-1: remarkably shifted the concentration-response curve for endothelin-1 to the right

## CC(C)C[C@@H]1NC(=O)[C@@H](C(C)C)NC(=O)[C@H](C)NC(=O)[C@@H](CCC(=O)O)NC(=O)[C@@H](Cc2c[nH]c3ccccc23)NC1=O [Example 7, cyclo(-DTrp-DGlu-Ala-DVal-Leu-)] (cyclo(A[dV]L[dW][dE]))
[1]
  inhibition at 1.1 µM: 27%

## CC(C)C[C@@H]1NC(=O)[C@@H](C(C)C)NC(=O)[C@H](Cc2c[nH]cn2)NC(=O)[C@@H](CC(=O)O)NC(=O)[C@@H](Cc2c[nH]c3ccccc23)NC1=O [Example 18, cyclo(-DTrp-DAsp-His-DVal-Leu-)] (cyclo(H[dV]L[dW][dD]))
[1]
  inhibition at 1.1 µM: 69%

## CCCC[C@@H]1NC(=O)[C@@H](CC(=O)O)NC(=O)[C@@H](Cc2c[nH]c3ccccc23)NC(=O)[C@H](CC(C)C)NC(=O)[C@@H](C(C)C)NC1=O [Example 46, cyclo(-DTrp-DAsp-Nle-DVal-Leu-)] (cyclo(L[dW][dD][Nle][dV]))
[1]
  inhibition at 1.1 µM: 75%

From patent US5114918A, “Endothelin antagonistic cyclic pentapeptides” (Banyu Pharmaceutical Co., Ltd., priority 1989, dated 1992)
